Experimental data published in ChEMBL document CHEMBL1140081 (J Med Chem, 2008).
One block for each compound: values may come before it.

Legend:
[1] = system: Human immunodeficiency virus 1; assay: Antiviral activity against HIV1 3B in human MT4 cells in presence of 50% normal human serum; format: functional; conditions: read-out: CIC95
[2] = Oral bioavailability in po dosed Sprague-Dawley rat; format: ADME, organism-based; conditions: in vivo
[3] = Oral bioavailability in po dosed dog; format: ADME, organism-based, Canis lupus familiaris; conditions: in vivo
[4] = Cmax in dog at 10 mg/kg, po; format: ADME, organism-based, Canis lupus familiaris; set-up: dose 10 mg/kg, route oral; conditions: in vivo
[5] = Cmax in po dosed Sprague-Dawley rat; format: ADME, organism-based; set-up: route oral; conditions: in vivo
[6] = Cmax in dog at 2 mg/kg, po; format: ADME, organism-based, Canis lupus familiaris; set-up: dose 2 mg/kg, route oral; conditions: in vivo
[7] = Terminal half life in po dosed Sprague-Dawley rat; format: ADME, organism-based; conditions: in vivo
[8] = Terminal half life in dog at 10 mg/kg, po; format: ADME, organism-based, Canis lupus familiaris; set-up: dose 10 mg/kg, route oral; conditions: in vivo, read-out: beta t1/2 (converted)
[9] = AUC in Sprague-Dawley rat at 3 mg/kg, po; format: ADME, organism-based; set-up: dose 3 mg/kg, route oral; conditions: plasma
[10] = AUC in dog at 2 mg/kg, po; format: ADME, organism-based, Canis lupus familiaris; set-up: dose 2 mg/kg, route oral; conditions: plasma
[11] = Plasma concentration in dog at 10 mg/kg, po after 12 hrs; format: ADME, organism-based, Canis lupus familiaris; set-up: dose 10 mg/kg, route oral
[12] = Plasma concentration in dog at 2 mg/kg, po after 12 hrs; format: ADME, organism-based, Canis lupus familiaris; set-up: dose 2 mg/kg, route oral
[13] = Metabolic stability in rhesus monkey liver microsomes; format: ADME, Macaca mulatta, Microsome
Liver microsomes [14] = assay: Metabolic stability in Sprague-Dawley rat liver microsomes; format: ADME, Microsome
Liver microsomes [15] = assay: Metabolic stability in human liver microsomes; format: ADME, Microsome
[16] = Metabolic stability in dog liver microsomes; format: ADME, Canis lupus familiaris, Microsome
[17] = Metabolic stability in iv dosed Sprague-Dawley rat bile assessed as raltegravir-glucuronide recovery; format: ADME, organism-based; conditions: in vivo
[18] = Metabolic stability in iv dosed Sprague-Dawley rat urine assessed as raltegravir-glucuronide recovery; format: ADME, organism-based; conditions: in vivo
[19] = Metabolic stability in iv dosed Sprague-Dawley rat urine assessed as drug recovery; format: ADME, organism-based; conditions: read-out: Drug uptake
[20] = Metabolic stability in iv dosed Sprague-Dawley rat bile assessed as drug recovery; format: ADME, organism-based; conditions: read-out: Drug uptake
[21] = Metabolic stability in iv dosed dog urine assessed as drug recovery after 0 to 24 hrs; format: ADME, organism-based, Canis lupus familiaris; conditions: read-out: Drug uptake
[22] = Metabolic stability in iv dosed dog urine assessed as drug recovery; format: ADME, organism-based, Canis lupus familiaris; conditions: read-out: Drug uptake
[23] = Metabolic stability in iv dosed dog urine assessed as raltegravir-glucuronide recovery; format: ADME, organism-based, Canis lupus familiaris; conditions: in vivo
[24] = Metabolic stability in Sprague-Dawley rat bile; format: ADME
[25] = Metabolic stability in po dosed dog bile; format: ADME, organism-based, Canis lupus familiaris; conditions: in vivo
[26] = molecular target: Human immunodeficiency virus type 1 integrase (Human immunodeficiency virus 1, UniProt Q7ZJM1); assay: Inhibition of HIV1 recombinant integrase strand transfer activity
Human immunodeficiency virus type 1 integrase, sequence (Q7ZJM1 whole entry): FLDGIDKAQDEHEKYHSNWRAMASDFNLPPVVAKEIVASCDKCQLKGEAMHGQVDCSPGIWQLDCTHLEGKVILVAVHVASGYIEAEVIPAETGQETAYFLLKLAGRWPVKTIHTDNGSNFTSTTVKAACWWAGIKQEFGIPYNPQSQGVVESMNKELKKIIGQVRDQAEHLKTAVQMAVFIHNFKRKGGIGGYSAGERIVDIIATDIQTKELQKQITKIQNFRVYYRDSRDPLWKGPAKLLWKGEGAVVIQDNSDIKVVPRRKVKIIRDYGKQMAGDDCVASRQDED

[27] = Inhibition of HCV polymerase; set-up: species or system Hepacivirus hominis
[28] = Inhibition of HIV reverse transcriptase; set-up: species or system Human immunodeficiency virus
[29] = Inhibition of HIV ribonuclease H; set-up: species or system Human immunodeficiency virus
[30] = Inhibition of human DNA polymerase alpha
DNA polymerase beta = DNA polymerase beta (Homo sapiens, UniProt P06746); assay: Inhibition of human DNA polymerase beta
[31] = Inhibition of human DNA polymerase gamma
Cytochrome P450 1A2 = molecular target: T1, Cytochrome P450 1A2 (Homo sapiens, UniProt P05177); assay: Inhibition of CYP1A2; format: ADME
T1 sequence (P05177 whole entry): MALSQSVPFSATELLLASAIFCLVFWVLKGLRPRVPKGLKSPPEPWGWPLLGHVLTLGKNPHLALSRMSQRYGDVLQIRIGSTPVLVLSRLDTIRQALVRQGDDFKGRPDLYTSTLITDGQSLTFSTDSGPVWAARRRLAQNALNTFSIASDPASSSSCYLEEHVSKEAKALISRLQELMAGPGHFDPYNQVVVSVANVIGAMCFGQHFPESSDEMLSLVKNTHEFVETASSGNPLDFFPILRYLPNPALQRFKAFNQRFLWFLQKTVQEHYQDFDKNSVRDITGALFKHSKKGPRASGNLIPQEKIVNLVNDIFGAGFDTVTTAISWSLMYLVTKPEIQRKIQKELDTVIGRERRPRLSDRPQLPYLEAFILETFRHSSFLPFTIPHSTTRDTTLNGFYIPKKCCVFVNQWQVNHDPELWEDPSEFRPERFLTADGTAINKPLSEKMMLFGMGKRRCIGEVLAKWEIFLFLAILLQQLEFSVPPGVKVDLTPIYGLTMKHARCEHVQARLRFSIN

Cytochrome P450 2C9 = Cytochrome P450 2C9 (Homo sapiens, UniProt P11712); assay: Inhibition of CYP2C9; format: ADME
Cytochrome P450 2C9, sequence (P11712 whole entry): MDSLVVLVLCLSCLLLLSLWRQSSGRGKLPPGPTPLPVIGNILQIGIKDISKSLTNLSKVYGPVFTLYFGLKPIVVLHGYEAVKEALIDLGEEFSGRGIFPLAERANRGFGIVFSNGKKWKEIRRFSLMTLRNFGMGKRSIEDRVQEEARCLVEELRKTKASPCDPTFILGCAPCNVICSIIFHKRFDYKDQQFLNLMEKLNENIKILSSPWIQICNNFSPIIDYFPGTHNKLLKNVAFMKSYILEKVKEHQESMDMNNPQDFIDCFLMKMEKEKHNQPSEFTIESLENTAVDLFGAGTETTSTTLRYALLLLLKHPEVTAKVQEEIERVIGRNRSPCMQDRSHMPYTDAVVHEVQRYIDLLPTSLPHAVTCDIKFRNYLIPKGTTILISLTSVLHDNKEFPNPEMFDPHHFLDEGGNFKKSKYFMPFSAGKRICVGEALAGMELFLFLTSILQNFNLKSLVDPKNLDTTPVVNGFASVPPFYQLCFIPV

Cytochrome P450 2D6 = Cytochrome P450 2D6 (Homo sapiens, UniProt P10635); assay: Inhibition of CYP2D6; format: ADME
Cytochrome P450 2D6, sequence (P10635 whole entry): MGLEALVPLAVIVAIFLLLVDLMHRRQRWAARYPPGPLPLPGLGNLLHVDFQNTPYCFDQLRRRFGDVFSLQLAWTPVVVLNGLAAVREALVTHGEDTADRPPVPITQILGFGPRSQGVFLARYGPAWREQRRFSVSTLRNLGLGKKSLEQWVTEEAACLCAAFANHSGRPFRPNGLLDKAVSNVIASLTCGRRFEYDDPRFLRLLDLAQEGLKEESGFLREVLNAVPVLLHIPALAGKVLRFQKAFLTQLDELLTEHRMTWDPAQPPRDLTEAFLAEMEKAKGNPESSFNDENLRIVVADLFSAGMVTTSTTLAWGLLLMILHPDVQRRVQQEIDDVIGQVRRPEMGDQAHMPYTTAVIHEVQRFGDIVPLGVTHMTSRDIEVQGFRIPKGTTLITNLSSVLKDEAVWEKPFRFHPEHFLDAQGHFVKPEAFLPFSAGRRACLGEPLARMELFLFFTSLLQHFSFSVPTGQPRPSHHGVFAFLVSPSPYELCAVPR

Cytochrome P450 3A4 = Cytochrome P450 3A4 (Homo sapiens, UniProt P08684); assay: Inhibition of CYP3A4; format: ADME
Cytochrome P450 3A4, sequence (P08684 whole entry): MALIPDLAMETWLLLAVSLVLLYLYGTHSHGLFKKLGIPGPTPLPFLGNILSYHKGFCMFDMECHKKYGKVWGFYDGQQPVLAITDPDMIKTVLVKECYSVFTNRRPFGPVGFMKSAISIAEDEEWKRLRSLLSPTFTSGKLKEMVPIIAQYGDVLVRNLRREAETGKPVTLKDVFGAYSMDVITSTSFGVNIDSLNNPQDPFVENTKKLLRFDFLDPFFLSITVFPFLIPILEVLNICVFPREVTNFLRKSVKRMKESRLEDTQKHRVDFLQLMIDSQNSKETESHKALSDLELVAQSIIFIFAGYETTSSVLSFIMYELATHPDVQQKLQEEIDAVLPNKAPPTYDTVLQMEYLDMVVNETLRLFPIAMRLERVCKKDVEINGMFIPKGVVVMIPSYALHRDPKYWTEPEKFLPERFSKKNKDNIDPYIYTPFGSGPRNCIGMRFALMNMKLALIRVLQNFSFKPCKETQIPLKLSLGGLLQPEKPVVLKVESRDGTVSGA

[32] = molecular target: Voltage-gated inwardly rectifying potassium channel KCNH2 (Homo sapiens, UniProt Q12809); assay: Binding affinity to human ERG
Voltage-gated inwardly rectifying potassium channel KCNH2, sequence (Q12809 whole entry): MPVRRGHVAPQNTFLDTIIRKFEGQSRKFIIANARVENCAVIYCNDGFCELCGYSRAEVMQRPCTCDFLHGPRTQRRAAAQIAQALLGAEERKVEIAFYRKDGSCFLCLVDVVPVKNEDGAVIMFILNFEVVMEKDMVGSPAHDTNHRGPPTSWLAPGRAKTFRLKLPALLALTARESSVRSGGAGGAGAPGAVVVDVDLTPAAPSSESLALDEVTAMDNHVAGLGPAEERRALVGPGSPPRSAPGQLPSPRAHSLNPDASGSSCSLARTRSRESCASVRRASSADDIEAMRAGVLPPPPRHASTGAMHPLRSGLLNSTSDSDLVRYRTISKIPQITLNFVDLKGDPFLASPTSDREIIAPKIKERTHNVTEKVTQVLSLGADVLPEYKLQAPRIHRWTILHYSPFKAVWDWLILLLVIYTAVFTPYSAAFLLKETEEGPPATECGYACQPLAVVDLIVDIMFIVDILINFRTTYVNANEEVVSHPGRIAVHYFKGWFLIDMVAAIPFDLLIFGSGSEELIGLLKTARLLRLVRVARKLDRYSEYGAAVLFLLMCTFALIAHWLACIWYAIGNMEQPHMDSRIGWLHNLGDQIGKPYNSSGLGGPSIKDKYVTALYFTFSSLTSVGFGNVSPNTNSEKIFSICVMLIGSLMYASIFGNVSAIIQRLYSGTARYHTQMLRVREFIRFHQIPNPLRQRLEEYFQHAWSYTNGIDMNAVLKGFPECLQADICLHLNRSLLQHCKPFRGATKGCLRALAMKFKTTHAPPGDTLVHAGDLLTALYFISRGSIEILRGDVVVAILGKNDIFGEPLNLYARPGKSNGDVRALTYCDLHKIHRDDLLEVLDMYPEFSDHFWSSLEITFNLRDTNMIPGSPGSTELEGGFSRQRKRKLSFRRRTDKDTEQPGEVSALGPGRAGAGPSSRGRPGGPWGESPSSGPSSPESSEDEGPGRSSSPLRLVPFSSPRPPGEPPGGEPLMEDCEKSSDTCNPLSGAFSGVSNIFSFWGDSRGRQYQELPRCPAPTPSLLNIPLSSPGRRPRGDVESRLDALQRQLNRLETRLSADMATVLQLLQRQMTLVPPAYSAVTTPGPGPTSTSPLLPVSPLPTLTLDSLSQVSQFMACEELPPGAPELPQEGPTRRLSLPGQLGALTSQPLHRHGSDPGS

[33] = Plasma clearance in Sprague-Dawley rat at 3 mg/kg, iv; format: ADME, organism-based; set-up: dose 3 mg/kg, route intravenous
[34] = Primary phase half life in Sprague-Dawley rat at 3 mg/kg, iv; format: ADME, organism-based; set-up: dose 3 mg/kg, route intravenous; conditions: in vivo, read-out: alphat1/2 (converted)
[35] = Terminal half life in Sprague-Dawley rat at 3 mg/kg, iv; format: ADME, organism-based; set-up: dose 3 mg/kg, route intravenous; conditions: in vivo, read-out: beta t1/2 (converted)
[36] = Volume of distribution in Sprague-Dawley rat at 3 mg/kg, iv; format: ADME, organism-based; set-up: dose 3 mg/kg, route intravenous; conditions: in vivo
[37] = Plasma clearance in dog at 5 mg/kg, iv; format: ADME, organism-based, Canis lupus familiaris; set-up: dose 5 mg/kg, route intravenous
[38] = Primary phase half life in dog at 5 mg/kg, iv; format: ADME, organism-based, Canis lupus familiaris; set-up: dose 5 mg/kg, route intravenous; conditions: in vivo, read-out: alphat1/2 (converted)
[39] = Terminal half life in dog at 5 mg/kg, iv; format: ADME, organism-based, Canis lupus familiaris; set-up: dose 5 mg/kg, route intravenous; conditions: in vivo, read-out: beta t1/2 (converted)
[40] = Volume of distribution in dog at 5 mg/kg, iv; format: ADME, organism-based, Canis lupus familiaris; set-up: dose 5 mg/kg, route intravenous; conditions: in vivo
[41] = Plasma clearance in rhesus monkey at 1 mg/kg, iv; format: ADME, organism-based, Macaca mulatta; set-up: dose 1 mg/kg, route intravenous
[42] = Primary phase half life in rhesus monkey at 1 mg/kg, iv; format: ADME, organism-based, Macaca mulatta; set-up: dose 1 mg/kg, route intravenous; conditions: in vivo, read-out: alphat1/2 (converted)
[43] = Terminal half life in rhesus monkey at 1 mg/kg, iv; format: ADME, organism-based, Macaca mulatta; set-up: dose 1 mg/kg, route intravenous; conditions: in vivo, read-out: beta t1/2 (converted)
[44] = Oral bioavailability in po dosed rhesus monkey; format: ADME, organism-based, Macaca mulatta; conditions: in vivo
[45] = Cmax in Sprague-Dawley rat at 3 mg/kg, po; format: ADME, organism-based; set-up: dose 3 mg/kg, route oral; conditions: in vivo
[46] = Cmax in rhesus monkey at 10 mg/kg, po; format: ADME, organism-based, Macaca mulatta; set-up: dose 10 mg/kg, route oral; conditions: in vivo
[47] = Terminal half life in po dosed rhesus monkey; format: ADME, organism-based, Macaca mulatta; conditions: in vivo, read-out: beta t1/2 (converted)
[48] = AUC in dog at 10 mg/kg, po; format: ADME, organism-based, Canis lupus familiaris; set-up: dose 10 mg/kg, route oral; conditions: plasma
[49] = AUC in rhesus monkey at 10 mg/kg, po; format: ADME, organism-based, Macaca mulatta; set-up: dose 10 mg/kg, route oral; conditions: plasma
[50] = AUC in Sprague-Dawley rat at 100 mg/kg, po using 1% methyl cellulose as vehicle; format: ADME, organism-based; set-up: dose 100 mg/kg, route oral; conditions: in vivo
[51] = system: Human immunodeficiency virus 1; assay: Antiviral activity against HIV1 with integrase T66I/M154 mutation by single cycle infectivity assay in presence of 10%FBS; format: functional
[52] = system: Human immunodeficiency virus 1; assay: Antiviral activity against HIV1 with integrase T66I/S153Y mutation by single cycle infectivity assay in presence of 10%FBS; format: functional
[53] = system: Human immunodeficiency virus 1; assay: Antiviral activity against HIV1 with integrase N155S mutation by single cycle infectivity assay in presence of 10%FBS; format: functional
[54] = system: Human immunodeficiency virus 1; assay: Antiviral activity against HIV1 with integrase T125K/F121Y mutation by single cycle infectivity assay in presence of 10%FBS; format: functional
[55] = system: Human immunodeficiency virus 1; assay: Antiviral activity against HIV1 with integrase T66I/L74M/V151I mutation by single cycle infectivity assay in presence of 10%FBS; format: functional
[56] = Cmax in Sprague-Dawley rat at 100 mg/kg, po using 1% methyl cellulose as vehicle; format: ADME, organism-based; set-up: dose 100 mg/kg, route oral; conditions: in vivo
[57] = AUC in Sprague-Dawley rat at 100 mg/kg, po using PEG400 as vehicle; format: ADME, organism-based; set-up: dose 100 mg/kg, route oral; conditions: plasma
[58] = Cmax in Sprague-Dawley rat at 100 mg/kg, po using PEG400 as vehicle; format: ADME, organism-based; set-up: dose 100 mg/kg, route oral; conditions: in vivo
[59] = Volume of distribution in rhesus monkey at 1 mg/kg, iv; conditions: in vivo
[60] = system: Human immunodeficiency virus 1; assay: Antiviral activity against HIV1 3B in human MT4 cells in presence of 10% heat-inactivated fetal bovine serum; conditions: Human immunodeficiency virus 1, 3B, read-out: CIC95

SMILES: Cc1nnc(C(=O)NC(C)(C)c2nc(C(=O)NCc3ccc(F)cc3)c([O-])c(=O)n2C)o1.[K+] [RALTEGRAVIR POTASSIUM]
IC95 [1]: 31 nM | bioavailability [2]: 45% | bioavailability [3]: 69% | Cmax [4]: 24 µM | Cmax [5]: 1600 nM | Cmax [6]: 4.6 µM | half-life [7]: 450 min | half-life [8]: 780 min | AUC [9]: 1.3 µM·h | AUC [10]: 11 µM·h | concentration at 12 h [11]: 350 nM | concentration at 12 h [12]: 160 nM

Stability [13]: 36 µL/min/kg | Stability (Liver microsomes [14]): 34 µL/min/kg | Stability (Liver microsomes [15]): 9 µL/min/kg | Stability [16]: 2 µL/min/kg | Drug uptake [17]: 90% | Drug uptake [18]: 90% | dose excreted [19]: 10% | dose excreted [20]: 10% | dose excreted [21]: 30% | dose excreted [22]: 65% | Drug uptake [23]: 35%
SMILES: Cc1nnc(C(=O)NC(C)(C)c2nc(C(=O)NCc3ccc([19F])cc3)c(O)c(=O)n2C)o1

Stability [13]: 46 µL/min/kg | Stability (Liver microsomes [14]): 20 µL/min/kg | Stability (Liver microsomes [15]): 8 µL/min/kg | Stability [16]: 3 µL/min/kg | Activity [24]: 5% | Activity [25]: 13%
SMILES: CN(C)C(=O)C(=O)NC(C)(C)c1nc(C(=O)NCc2ccc([19F])cc2)c(O)c(=O)n1C

SMILES: CN(C)C(=O)C(=O)NC(C)(C)c1nc(C(=O)NCc2ccc(F)cc2)c(O)c(=O)n1C
IC50 [26]: 10 nM | IC95 ([1]; Human immunodeficiency virus 1, 3B, MT4): 74 nM | IC50 [27]: > 50 µM | IC50 [28]: > 50 µM | IC50 [29]: > 50 µM | IC50 [30]: > 50 µM | IC50 (DNA polymerase beta): > 50 µM | IC50 [31]: > 50 µM | IC50 (Cytochrome P450 1A2): > 50 µM | IC50 (Cytochrome P450 2C9): > 50 µM | IC50 (Cytochrome P450 2D6): > 50 µM | IC50 (Cytochrome P450 3A4): > 50 µM | IC50 [32]: > 50 µM | clearance [33]: 20 mL/min/kg | half-life [34]: 24 min | half-life [35]: 360 min | Vd [36]: 1.3 L/kg | clearance [37]: 11 mL/min/kg | half-life [38]: 72 min | half-life [39]: 960 min | Vd [40]: 1.1 L/kg | clearance [41]: 14 mL/min/kg | half-life [42]: 54 min | half-life [43]: 180 min | bioavailability [44]: 24% | Cmax [45]: 600 nM | Cmax [4]: 11 µM | Cmax [46]: 4.5 µM | half-life [7]: 54 min | half-life [8]: 294 min | half-life [47]: 114 min | AUC [9]: 0.7 µM·h | AUC [48]: 23 µM·h | AUC [49]: 5.2 µM·h | AUC [50]: 23 µM·h | Activity [51]: 5% | Activity [52]: 8% | Activity [53]: 40% | Activity [54]: 19% | Activity [55]: 35% | Cmax [56]: 12 µM | AUC [57]: 49 µM·h | Cmax [58]: 31 µM | Vd [59]: 2.9 L/kg | IC95 [60]: 0.045 µM
